test system: KYSE-150 esophageal carcinoma cell line; test: In vitro cell-based assay: cellular proliferation via BrdU incorporation; settings: Homo sapiens; KYSE-150 cells, BrdU incorporation after 168 hr compound incubation
Description: Cell lines tested include the JMJD2C gene amplified cell line KYSE-150. This is a quantitative ELISA assay measuring DNA incorporation of BrdU during S-phase as a direct readout of cellular proliferation.
Assay Principle: This is a colorimetric immunoassay for the quantification of cell proliferation. Cells treated for 168 hours with test compounds are assayed for their ability to go through S-phase as a measure of their proliferative potential.
Assay Method: The human KYSE-150 (SMAD4 mut, TP53 mut) esophageal carcinoma cell line was seeded at 2,000 cells/well on a 96-well tissue culture treated plate. After an overnight incubation, cells were treated with compound in an […] dilution series with final concentrations ranging from 100 μM to 2 nM. Cells were then incubated in the presence of compound for 168 hr. After compound incubation the cells were assayed using a BrdU Cell Proliferation ELISA (Roche). The cells were first incubated with BrdU labeling reagent for 2 hr. After 2 hr, the BrdU incorporated cells were fixed and denatured, probed with an anti-BrdU-Peroxidase antibody for 1.5 hr and washed. Finally, a tetramethylbenzidine peroxidase substrate was added to each well for 15 min followed by a H2SO4 stop solution. The plate was read at 450 nm, and the raw optical density data was transferred into XLFit (IDBS) for IC50 calculation using the formula: fit=(D+((Vmax*(x^n))/((x^n)+(Km^n))))

Compound | IC50
Cn1nc(-c2cc3nccc(C(=O)O)c3[nH]2)c2ccc(F)cc21 [Example 16, 2-(6-Fluoro-1-methyl-1H-indazol-3-yl)-1H-pyrrolo[3,2-b]pyridine-7-carboxylic Acid] | > 10 µM
CN(c1ccccc1)c1ccc2c(-c3cc4nccc(C(=O)O)c4[nH]3)n(C)nc2c1 [Example 11, 2-{2-Methyl-6-[methyl(phenyl)amino]-2H-indazol-3-yl}-1-H-pyrrolo[3,2-b]pyridine-7-carboxylic Acid] | ≤ 0.1 µM
COC(=O)c1ccnc2cc(-c3c4cc(Cl)ccc4nn3CCN3CCCC3)[nH]c12 [Example 10d, Methyl 2-{5-chloro-2-[2-(pyrrolidin-1-yl)ethyl]-2H-indazol-3-yl}-1H-pyrrolo[3,2-b]pyridine-7-carboxylate] | > 10 µM

From patent US10231957B2, “Histone demethylase inhibitors” (CELGENE QUANTICEL RESEARCH, INC., priority 2014, dated 2019)
